In US12391674B2, “Heterocyclic compounds for the treatment of epilepsy” (OTSUKA PHARMACEUTICAL CO., LTD., priority 2018, dated 2025):

Legend:
ICR mice = assay: Rotarod test (motor coordination); type: in vivo, mouse; conditions: oral, rotarod 1 hour after administration
Procedure, shortened: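 Motor coordination was assessed in male ICR mice (Japan SLC, Inc., 5-6 weeks old, 8 per group). Animals were first trained to stay for 2 minutes on a rotarod turning at a fixed 15 rpm. One hour after oral dosing, each mouse was placed on a rod accelerating from 4 rpm to 40 rpm over 5 minutes, and latency to fall was recorded for up to 200 seconds. Latencies were expressed relative to the mean of the solvent-treated group.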

DBA/2 mice = assay: Audiogenic seizure model; type: in vivo; conditions: Mus musculus, DBA/2 mice, oral, auditory stimulation 1 hour after administration, read-out: Seizure suppression
Procedure, shortened: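 Male and female DBA/2 mice (3 weeks old, 8/group) dosed orally at 30 mg/kg in 5% gum arabic; 1 h later exposed to 12.6 kHz, 100-110 dB tone for 1 min or until tonic seizure. Maximum seizure score (0–4) recorded; suppression rate graded A (≥90%), B (70–<90%), C (50–<70%).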

SMILES	Motor dysfunction (ICR mice; dose 5 mg/kg)	inhibition in vivo at 5 mg/kg (DBA/2 mice)	Motor dysfunction (ICR mice; dose 30 mg/kg)	inhibition in vivo at 30 mg/kg (DBA/2 mice)	also measured
c1ccc(Oc2ncc(-c3ccc4nccn4n3)cn2)cc1 [Example 123, 6-(2-Phenoxypyrimidin-5-Yl) Imidazo[1,2-b]Pyridazine]	A (a coordination disorder of 25% or less)	> 90%	–	–	–
Clc1cccc(Oc2ncc(-c3ccc4nccn4c3)cn2)c1 [Example 163, 6-(2-(3-Chlorophenoxy)Pyrimidin-5-Yl) Imidazo[1,2-a]Pyridine]	A (a coordination disorder of 25% or less)	> 90%	–	–	–
Cc1cn2cc(-c3cnc(Oc4ccccc4)nc3)ccc2n1 [Example 177]	A (a coordination disorder of 25% or less)	70 to 90%	–	–	–
O=C1CCN(c2ccc(Oc3ccccc3)c(F)c2)C(=O)N1 [Example 329]	–	–	A (a coordination disorder of 25% or less)	70 to 90%	–
O=C1CCN(c2ccc(Oc3cccc(F)c3)nc2)C(=O)N1 [Example 332]	–	–	A (a coordination disorder of 25% or less)	70 to 90%	–
N#Cc1cccc(-c2cnc(Oc3ccccc3)nc2)n1 [Example 350]	–	–	–	–	Motor dysfunction (ICR mice; dose 10 mg/kg): A (a coordination disorder of 25% or less); inhibition in vivo at 10 mg/kg (DBA/2 mice; dose 10 mg/kg): > 90%
FC(F)(F)c1ccnc(-c2cnc(Oc3ccccc3)nc2)n1 [Example 300]	–	–	A (a coordination disorder of 25% or less)	> 90%	–
O=C1CCN(c2ccc(Oc3cccc(C(F)(F)F)c3)cc2)C(=O)N1 [Example 307]	–	–	A (a coordination disorder of 25% or less)	70 to 90%	–
FC(F)(F)c1cn2ccc(-c3cnc(Oc4ccccc4)nc3)cc2n1 [Example 216]	A (a coordination disorder of 25% or less)	> 90%	–	–	–
FC(F)(F)c1cn2cc(-c3cnc(Oc4ccccc4)nc3)ccc2n1 [Example 214]	–	–	A (a coordination disorder of 25% or less)	> 90%	–
FC(F)(F)c1cc(-c2cnc(Oc3ccccc3)nc2)ccn1 [Example 299]	A (a coordination disorder of 25% or less)	> 90%	–	–	–
O=c1[nH]cccc1-c1cnc(Oc2ccccc2)nc1 [Example 107]	–	–	A (a coordination disorder of 25% or less)	> 90%	–
